Assay type in all cases: functional, cell-based
Data set [1] concerns the target T1, ATP-dependent translocase ABCB1 (Homo sapiens, UniProt P08183). The experiment in a line: TP_TRANSPORTER: increase in […] intracellular accumulation (VBL: 27nM, silymarin: 100 uM) in Caco-2 cells. The settings on record: caco-2, 100 µM.
Data set [2] concerns the target T1, ATP-dependent translocase ABCB1. The experiment in a line: TP_TRANSPORTER: increase in digoxin intracellular accumulation (digoxin: 11nM, silymarin: 100 uM) in Caco-2 cells. The settings on record: caco-2, 100 µM.
For data set [3] the target is unchanged. The experiment in a line: TP_TRANSPORTER: increase in […] intracellular accumulation (VBL: 27nM, biochanin A: 150 uM) in Caco-2 cells. The settings on record: caco-2, 150 µM.
Data set [4] shares this target. The experiment in a line: TP_TRANSPORTER: increase in digoxin intracellular accumulation (digoxin: 11nM, biochanin A: 150 uM) in Caco-2 cells. The following applies: caco-2, 150 µM.

T1 sequence (P08183 whole entry): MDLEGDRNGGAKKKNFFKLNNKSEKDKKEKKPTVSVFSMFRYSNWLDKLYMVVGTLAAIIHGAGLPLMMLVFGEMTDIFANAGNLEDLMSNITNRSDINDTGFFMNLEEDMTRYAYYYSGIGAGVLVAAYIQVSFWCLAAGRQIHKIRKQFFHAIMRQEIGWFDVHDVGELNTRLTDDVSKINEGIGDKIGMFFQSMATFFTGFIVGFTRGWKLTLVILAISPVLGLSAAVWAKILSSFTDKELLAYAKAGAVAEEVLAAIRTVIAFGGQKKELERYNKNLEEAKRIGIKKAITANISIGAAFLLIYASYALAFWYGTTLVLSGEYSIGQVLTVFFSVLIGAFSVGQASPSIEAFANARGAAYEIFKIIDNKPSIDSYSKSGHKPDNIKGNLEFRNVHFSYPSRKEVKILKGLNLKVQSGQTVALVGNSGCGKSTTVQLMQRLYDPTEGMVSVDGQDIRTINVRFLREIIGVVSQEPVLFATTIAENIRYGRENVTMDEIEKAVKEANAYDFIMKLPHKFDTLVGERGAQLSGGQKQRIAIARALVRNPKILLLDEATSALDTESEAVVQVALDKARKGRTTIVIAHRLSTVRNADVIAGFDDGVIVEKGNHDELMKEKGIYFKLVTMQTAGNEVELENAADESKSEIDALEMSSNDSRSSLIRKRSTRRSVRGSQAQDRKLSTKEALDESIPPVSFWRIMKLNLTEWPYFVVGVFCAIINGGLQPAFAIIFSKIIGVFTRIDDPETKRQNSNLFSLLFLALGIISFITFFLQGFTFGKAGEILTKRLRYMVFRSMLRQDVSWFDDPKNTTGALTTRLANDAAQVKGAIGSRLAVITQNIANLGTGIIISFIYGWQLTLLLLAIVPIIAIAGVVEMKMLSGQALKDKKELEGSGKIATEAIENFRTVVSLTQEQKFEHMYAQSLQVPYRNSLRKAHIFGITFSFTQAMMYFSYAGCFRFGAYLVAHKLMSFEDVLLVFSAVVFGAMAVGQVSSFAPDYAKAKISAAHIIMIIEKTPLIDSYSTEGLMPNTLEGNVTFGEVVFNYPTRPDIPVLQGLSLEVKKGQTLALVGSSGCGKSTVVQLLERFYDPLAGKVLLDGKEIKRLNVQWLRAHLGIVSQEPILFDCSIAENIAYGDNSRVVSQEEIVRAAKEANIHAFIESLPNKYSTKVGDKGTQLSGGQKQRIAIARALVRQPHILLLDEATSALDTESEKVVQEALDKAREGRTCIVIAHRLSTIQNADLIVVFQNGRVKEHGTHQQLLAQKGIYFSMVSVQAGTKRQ

Regarding SILYMARIN, the Activity result in data set [1] and in data set [2] was “inhibitor [+]” in each case.
Regarding `COc1ccc(-c2coc3cc(O)cc(O)c3c2=O)cc1` [BIOCHANIN], the Activity result in data set [3] and in data set [4] was “inhibitor [+]” throughout.

The values above are taken from ChEMBL document CHEMBL2073943, “Effect of the flavonoids biochanin A and silymarin on the P-glycoprotein-mediated transport of digoxin and vinblastine in human intestinal Caco-2 cells” (Pharm Res, 2003).
